Assay: gradient 5% acetonitrile 3 min, to 50% in 2 min, to 85% in 15 min, held 3 min, 100 µL/min
Settings: column: Zorbax Extend-C18 2.1 x 50 mm; eluents: water / acetonitrile, 0.1% formic acid
Procedure, shortened: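 Retention times of pure standards were taken from adduct peaks that were selected by computer and manually inspected. Over 3 months, mixtures of ~100 molecules were run by HPLC–quadrupole time-of-flight mass spectrometry in positive and negative ionization mode. The Zorbax Extend-C18 column (2.1 × 50 mm, 1.8 μm) ran at 100 μL/min in water and acetonitrile, each containing 0.1% formic acid, with 40 μL dead volume and 900 μL dwell volume.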

RP-LC retention time | Structure (SMILES)
760 s | COc1ccc(S(=O)(=O)NCCc2cn(C)c3ncccc23)cc1Cl
1330 s | CCCc1ccc(S(=O)(=O)N2CCC(F)(c3nc(CC(C)C)no3)CC2)cc1
628 s | O=C1CCCN1CCCN1C(=O)[C@H]2CN(Cc3cccc(Cl)c3)C[C@H]2C1=O
842 s | O=S(=O)(c1ccc(-c2cnc(C3CCCC3)o2)s1)N1CCN(c2ccccn2)CC1
1050 s | Cc1ccc2c(c1)c1c(n2CC(O)Cn2nc(C)cc2C)CCCC1 (stereo unspecified)
961 s | CCOc1ccc(S(=O)(=O)N2CCc3c(c(-c4nnc(SCC)n4CC)nn3C)C2)cc1
673 s | CC(C)(C)CC(=O)N1CCCC(C(=O)N2CCOCC2)C1 (stereo unspecified)
597 s | O=C(c1ccsc1)N1CCN(c2nc(CN3CCCCC3)cs2)CC1
1010 s | O=C(Cn1nc(N2CCCCCC2)c2ccccc2c1=O)Nc1ccc2c(c1)OCCO2
1110 s | Cn1cc(C2=C(c3ccc(Cl)cc3Cl)C(=O)NC2=O)c2ccccc21
1060 s | Cc1ccc(-c2nnc(-c3nn(C)c4c3CN(S(=O)(=O)c3ccc(Cl)s3)CC4)o2)cc1
660 s | O=C(Nc1ccc(F)cc1F)Nc1c(-c2ccccc2)nc2ccccn12
622 s | O=C(c1nc2ccccn2c1-c1ccsc1)N1CCCC1
1210 s | COc1ccccc1CCc1nc(-c2ccc3oc(C)nc3c2)no1
716 s | CC(C)CNC(=O)C1CCN(c2cnc(N3CCCCCC3)nc2)CC1
680 s | COc1ccccc1OCCNC(=O)c1ccc2[nH]c3c(c2c1)CN(C(C)=O)CC3
724 s | CCOC(=O)C1=C(C)NC(=O)NC1c1c(F)cccc1Cl (stereo unspecified)
1410 s | CC(C)(C)c1csc(-c2csc(S(=O)(=O)NCC3CCCCC3)c2)n1

RP-LC retention time | Structure (SMILES)
623 s | CCc1nnc2nc(N3CCN(C(=O)Cc4cc(OC)cc(OC)c4)CC3)cc(C)n12
948 s | Cc1cc(Cl)ccc1S(=O)(=O)N1C[C@@H](F)C[C@H]1C(=O)N1CCCCC1
931 s | Cc1ccc(C(=O)Nc2nc(-c3ccc4c(c3)NC(=O)CO4)c(C)s2)cc1
870 s | O=C(Nc1ccc(SCc2nnc(-c3ccccc3)o2)cc1)C1CC1
592 s | COc1cn2c(cc1=O)C(=O)N(CCNC(=O)C1c3ccccc3Oc3ccccc31)CC2
854 s | O=C(c1cccc2c1CCN2C(=O)c1ccc(F)cc1)N1CCCCC1
981 s | CC(C)(C)NC(=O)CN1C(=O)C2CCCCN2c2ccc(S(=O)(=O)N3CCCCC3)cc21 (stereo unspecified)
826 s | O=C(Cn1c(=O)n(Cc2ccc3c(c2)OCO3)c(=O)c2ncccc21)N1CCCc2ccccc21
696 s | COc1ccc(S(=O)(=O)NCCc2cn(C)c3ncccc23)cc1
1020 s | CCOC(=O)C1=C(CN(C)c2ccccc2)NC(=O)NC1c1ccc(C)cc1 (stereo unspecified)
777 s | Cc1cc2c(cc1S(=O)(=O)N1CCCC1C(=O)Nc1ccccc1)OC(C)C(=O)N2 (stereo unspecified)
906 s | CC(C)(C)c1ccc(-c2nc(N3CCCC3)c3ccccc3n2)cc1
909 s | COCC(=O)N(CC(=O)N1CCc2sccc2C1COc1ccc(Cl)cc1)C(C)C (stereo unspecified)
689 s | O=C(CC1COc2ccccc2NC1=O)NCCc1cccs1 (stereo unspecified)
887 s | COCCCNC(=O)Cn1nc(C)c2nn(-c3ccc(Cl)cc3)c(-n3cccc3)c2c1=O
773 s | COc1ccc(Cn2nc3c(S(=O)(=O)N4CCOCC4)cccn3c2=O)cc1F
639 s | COCCC(=O)N1CCCn2cc(-c3cccc(C#N)c3)nc21

Structure (SMILES) | RP-LC retention time
c1cnc2c(c1)ccc1ncccc12 | 674 s

— the METLIN SMRT retention time set (Domingo-Almenara et al. 2019)
